Source: patent US6551999B1, “Angiogenesis inhibitor” (Senju Pharmaceutical Co., Ltd., priority 1995, dated 2003)
Peptide text beside a SMILES is read from it. * marks the point of attachment. Tos = Cc1ccc(S(=O)(=O)*)cc1

Each molecule was assayed against T1, μ-calpain (Homo sapiens, UniProt P07384) (assay: μ-Calpain-inhibitory activity (casein substrate)). Conditions: 60 minutes at 30° C., pH 7.4, 4 mM calcium chloride.
T1 construct: purchased Nakalai Tesque
T1 sequence (P07384 1-714): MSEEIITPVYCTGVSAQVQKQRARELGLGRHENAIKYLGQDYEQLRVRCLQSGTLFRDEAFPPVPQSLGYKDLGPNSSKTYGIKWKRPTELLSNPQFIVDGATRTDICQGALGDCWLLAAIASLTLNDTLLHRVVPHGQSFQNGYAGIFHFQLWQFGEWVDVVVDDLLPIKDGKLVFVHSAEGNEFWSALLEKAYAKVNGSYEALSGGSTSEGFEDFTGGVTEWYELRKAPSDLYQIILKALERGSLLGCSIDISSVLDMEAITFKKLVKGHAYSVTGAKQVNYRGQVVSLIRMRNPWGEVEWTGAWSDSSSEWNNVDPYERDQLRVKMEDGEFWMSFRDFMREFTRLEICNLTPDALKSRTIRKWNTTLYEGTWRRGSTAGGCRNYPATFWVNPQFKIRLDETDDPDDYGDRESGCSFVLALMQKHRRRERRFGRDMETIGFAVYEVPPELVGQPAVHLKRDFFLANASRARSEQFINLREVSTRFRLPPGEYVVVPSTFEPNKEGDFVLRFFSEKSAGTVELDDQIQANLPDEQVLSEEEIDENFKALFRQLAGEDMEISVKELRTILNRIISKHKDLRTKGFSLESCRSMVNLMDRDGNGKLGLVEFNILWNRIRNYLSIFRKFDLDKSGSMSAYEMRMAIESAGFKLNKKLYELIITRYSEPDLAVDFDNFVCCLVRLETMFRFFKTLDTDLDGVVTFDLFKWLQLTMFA
T1 sequence (P04632 1-268 partner): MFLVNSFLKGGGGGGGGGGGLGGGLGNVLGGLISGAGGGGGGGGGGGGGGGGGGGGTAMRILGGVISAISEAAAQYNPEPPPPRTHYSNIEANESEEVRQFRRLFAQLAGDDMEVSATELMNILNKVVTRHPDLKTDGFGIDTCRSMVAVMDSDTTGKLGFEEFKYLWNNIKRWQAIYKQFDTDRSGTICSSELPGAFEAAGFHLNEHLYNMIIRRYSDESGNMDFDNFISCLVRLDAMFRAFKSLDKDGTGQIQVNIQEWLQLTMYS
Format: biochemical
Experimental: Thus, to a solution containing 0.5 mg/ml casein, 50 mM Tris-HCl (pH 7.4), 20 mM dithiothreitol, and 4 mM calcium chloride was added 2.5 μl of a dimethyl sulfoxide solution containing a varying concentration of the test drug as well as 0.03 unit of μcalpain to initiate the reaction. The final liquid volume was 250 μl. After 60 minutes of reaction at 30° C., 100 μl of the reaction mixture was transferred to another vessel, to which 50 μl of purified water and 100 μl of 50% Coumassie brilliant blue solution were added. […] As a control, 2.5 μl of dimethyl sulfoxide not containing the test drug was added and the mixture was treated in the same manner as above. […] Similarly, the value found by adding 0.2 mM EDTA in lieu of 4 mM aqueous calcium chloride solution was used as the blank value. […] [formula]

`CC(C)[C@H](NS(=O)(=O)c1ccc(F)cc1)C(=O)NC(C=O)CC1CCCCC1` (stereo partly drawn) [Compound 52, N-(4-fluorophenylsulfonyl)-L-valyl-L-cyclohexylalaninal] and `CC(C)[C@H](NS(=O)(=O)c1ccc(F)cc1)C(=O)N[C@H](C=O)Cc1ccccc1` [Compound 43, N-(4-fluorophenylsulfonyl)-L-valyl-L-phenylalaninal] are within 1.5-fold of each other in IC50: 0.03 µM for the first, 0.027 µM for the second.

Compared with `O=C(O)[C@H]1O[C@@H]1C(=O)N1CCC[C@H]1C(=O)N1CCN(c2ccccc2Cl)CC1` [Compound 27, (2s,3s)-3-[[(2s)-2-[[4-(2-chloro-phenyl)-1-piperazinyl]carbonyl]-1-pyrrolidinyl]carbonyl]oxiranecarboxylic acid], `C[C@H](NC(=O)[C@H]1O[C@@H]1C(=O)O)C(=O)N1CCN(c2ccccc2Cl)CC1` [Compound 23, (2s,3s)-3-[[[(1s)-1-[[4-(2-chlorophenyl)-1-piperazinyl]carbonyl]ethyl]amino]carbonyl]oxiranecarboxylic acid] is 470-fold lower in IC50: 2400 µM for the first, 5.1 µM for the second. The second is the more potent here.

Compared with `O=C[C@H](Cc1c[nH]c2ccccc12)NC(=O)C1(NS(=O)(=O)c2ccc3ccccc3c2)CCCCC1` [Compound 50, 1-(2-naphthalenesulfonylamino)cyclohexanecarbonyl-L-tryptophanal], `O=C[C@H](Cc1ccccc1)NC(=O)C1(NS(=O)(=O)c2ccc3ccccc3c2)CCCCC1` [Compound 47] is 1.8-fold lower in IC50: 0.36 µM for the first, 0.2 µM for the second. The second is the more potent here.

First: CC(C)C[C@H](NC(=O)[C@H]1O[C@@H]1C(=O)O)C(=O)N1CCN(S(=O)(=O)N(C)C)CC1 [Compound 15, (2s,3s)-3-[[[[(1s)-1-[(4-dimethylsulfamoyl-1-piperazinyl)carbonyl]-3-methyl]butyl]amino]carbonyl]oxiranecarboxylic acid]
Second: Cc1ccc(S(=O)(=O)N2CCN(C(=O)[C@H](CC(C)C)NC(=O)[C@H]3O[C@@H]3C(=O)NO)CC2)cc1 [Compound 33, (2s,3s)-3-[[[[(1s)-1-[[4-(4-methylphenylsulfonyl)-1-piperazinyl]carbonyl]-3-methyl]butyl]amino]carbonyl]oxiranecarbohydroxamic acid]
The IC50 of the first is 1.7-fold lower: 1.1 µM for the first, 1.9 µM for the second. The first is the more potent here.

Going from `CSCC[C@H](NC(=O)[C@H]1O[C@@H]1C(=O)O)C(=O)N1CCN(c2ccccc2Cl)CC1` [Compound 29, (2s,3s)-3-[[[[(1s)-1-[[4-(2-chlorophenyl)-1-piperazinyl]carbonyl]-3-methylthio]propyl]amino]carbonyl]oxiranecarboxylic acid] to `NC(=O)CC[C@H](NC(=O)[C@H]1O[C@@H]1C(=O)O)C(=O)N1CCN(c2ccccc2Cl)CC1` [Compound 30, (2s,3s)-3-[[[[(1s)-1-[[4-(2-chlorophenyl)-1-piperazinyl]carbonyl]-3-carbamoyl]propyl]amino]carbonyl]oxiranecarboxylic acid], the IC50 rises from 0.6 µM to 6 µM (10-fold).

`CC(C)C[C@H](NC(=O)[C@H]1O[C@@H]1C(=O)O)C(=O)N1CCN(c2cccc(Cl)c2)CC1` [Compound 18, (2s,3s)-3-[[[[(1s)-1-[[4-(3-chlorophenyl)-1-piperazinyl]carbonyl]-3-methyl]butyl]amino]carbonyl]oxiranecarboxylic acid] and `CC(C)C[C@H](NC(=O)[C@H]1O[C@@H]1C(=O)O)C(=O)N1CCN(c2ccc(Cl)cc2)CC1` [Compound 19, (2s,3s)-3-[[[[(1s)-1-[[4-(4-chlorophenyl)-1-piperazinyl]carbonyl]-3-methyl]butyl]amino]carbonyl]oxiranecarboxylic acid] are within 1.5-fold of each other in IC50: 0.63 µM for the first, 0.49 µM for the second.

`CC(C)[C@H](NS(=O)(=O)c1ccc2ccccc2c1)C(=O)N[C@H](C=O)Cc1ccccc1` [Compound 44, N-(2-naphthalenesulfonyl)-L-valyl-L-phenylalaninal] and `CC(C)[C@H](NS(=O)(=O)c1ccc(Cl)cc1)C(=O)N[C@H](C=O)Cc1ccccc1` [Compound 45, N-(4-chlorophenylsulfonyl)-L-valyl-L-phenylalaninal] are the same in IC50: 0.014 µM for the first, 0.014 µM for the second.

`CC(C)C[C@@H](C=O)NC(=O)[C@@H](NS(=O)(=O)c1ccc(Cl)cc1)C(C)C` [Compound 36, N-(4-chlorophenylsulfonyl)-L-valyl-L-leucinal] and `Cc1ccc(S(=O)(=O)N[C@H](C(=O)N[C@H](C=O)CC(C)C)C(C)C)cc1` [Compound 37, N-(4-methylphenylsulfonyl)-L-valyl-L-leucinal] (Tos-Val-Leu-aldehyde) are within 1.5-fold of each other in IC50: 0.031 µM for the first, 0.028 µM for the second.

Going from `CC(C)[C@H](NC(=O)[C@H]1O[C@@H]1C(=O)O)C(=O)N1CCN(c2ccccc2Cl)CC1` [Compound 21, (2s,3s)-3-[[[[(1s)-1-[[4-(2-chlorophenyl)-1-piperazinyl]carbonyl]-2-methyl]propyl]amino]carbonyl]oxiranecarboxylic acid] to `O=C(O)[C@H]1O[C@@H]1C(=O)NCCC(=O)N1CCN(c2ccccc2Cl)CC1` [Compound 25, (2s,3s)-3-[[[2-[[4-(2-chlorophenyl)-1-piperazinyl]carbonyl]ethyl]amino]carbonyl]oxiranecarboxylic acid], the IC50 rises from 0.95 µM to 41 µM (43-fold). The first is the more potent here.

Going from `O=C(O)[C@H]1O[C@@H]1C(=O)NC1(C(=O)N2CCN(c3ccc(F)cc3)CC2)CCCC1` [Compound 31, (2s,3s)-3-[[[(1s)-1-[[4-(4-fluorophenyl)-1-piperazinyl]carbonyl]-1-cyclopentyl]amino]carbonyl]oxiranecarboxylic acid] to `CC(C)C[C@H](NC(=O)[C@H]1O[C@@H]1C(=O)O)C(=O)N1CCN(c2ccccc2)CC1` [Compound 14, (2s,3s)-3-[[[[(1s)-1-[(4-phenyl-1-piperazinyl)carbonyl]-3-methyl]butyl]amino]carbonyl]oxiranecarboxylic acid], the IC50 falls from 150 µM to 0.78 µM (190-fold).

`Cc1ccc(S(=O)(=O)N[C@H](C(=O)N[C@H](C=O)Cc2ccccc2)C(C)C)cc1` [Compound 46, N-(4-methylphenylsulfonyl)-L-valyl-L-phenylalaninal] (Tos-Val-Phe-aldehyde) and `CC(C)[C@H](NS(=O)(=O)c1ccc(F)cc1)C(=O)N[C@H](C=O)Cc1c[nH]c2ccccc12` [Compound 49, N-(4-fluorophenylsulfonyl)-L-valyl-L-tryptophanal] are within 1.5-fold of each other in IC50: 0.018 µM for the first, 0.023 µM for the second.

First: CCCC[C@H](NS(=O)(=O)c1ccc(F)cc1)C(=O)N[C@H](C=O)CC(C)C [Compound 40, N-(4-fluorophenylsulfonyl)-L-norleucyl-L-leucinal]
Second: CC(C)C[C@@H](C=O)NC(=O)[C@@H](NS(=O)(=O)c1ccc2ccccc2c1)C(C)(C)C [Compound 38, N-(2-naphthalenesulfonyl)-L-tert-leucyl-L-leucinal]
The IC50 of the first is 23-fold lower: 0.26 µM for the first, 6.1 µM for the second. The first is the more potent here.

Same assay, conditions: read-out: Calpain 50% inhibitory concentration (IC50); 60 minutes at 30° C., pH 7.4, 4 mM calcium chloride

Going from `CCOC(=O)[C@H]1O[C@@H]1C(=O)N[C@@H](CC(C)C)C(=O)N1CCN(c2ccc(F)cc2)CC1` [Compound 3, ethyl (2s,3s)-3-[[[[(1s)-1-[[4-(4-fluorophenyl)-1-piperazinyl]carbonyl]-3-methyl]butyl]amino]carbonyl]oxiranecarboxylate] to `COc1ccc(N2CCN(C(=O)[C@H](CC(C)C)NC(=O)[C@H]3O[C@@H]3C(=O)O)CC2)cc1` [Compound 20, (2s,3s)-3-[[[[(1s)-1-[[4-(4-methoxyphenyl)-1-piperazinyl]carbonyl]-3-methyl]butyl]amino]carbonyl]oxiranecarboxylic acid], the IC50 falls from 47 µM to 1.2 µM (39-fold). The second is the more potent here.

`CC(=O)NCSC[C@@H](NC(=O)[C@H]1O[C@@H]1C(=O)O)C(=O)N1CCN(c2ccccc2Cl)CC1` [Compound 28, (2s,3s)-3-[[[[(1s)1-[[4-(2-chlorophenyl)-1-piperazinyl]carbonyl]-2-acetylaminomethylthio]-ethyl]amino]carbonyl]oxiranecarboxylic acid] showed an IC50 of 3.9 µM.
